Measurements as given in patent publication US12281149B2, “Modulators of G-protein coupled receptors” (priority 2021, dated 2025).
*1 amine or outer side, *2 acyl side, *3 side chain or, on linkers, in order; H or OH if unused. Where a SMILES comes first, the peptide text is derived from it. Side-chain parts run from the residue outwards. [ ]: non-standard residue; d: D form. The star is where a group is joined. Isobutyryl(2-(3-CN-5-F-Ph)) = CC(C)(C(=O)*)c1cc(F)cc(C#N)c1; cPentCO(1-(4-ClPh)) = O=C(C1(c2ccc(Cl)cc2)CCCC1)*; Azetidine3carboxylic = O=C(C1CN([*:1])C1)[*:2]; C20 diacid = O=C(O)CCCCCCCCCCCCCCCCCCC(=O)*; γGlu = O=C(O)[C@H](CCC(=O)[*:2])N[*:1]; X17 = CC(C)(C(=O)*)c1ccc(F)c(F)c1; X18 = O=C(C1(c2cccc(F)c2)CCCC1)*; X77 = CC(C(=O)*)c1cc(F)cc(F)c1; AEEA = NCCOCCOCC(=O)O; Aib = CC(C)(N)C(=O)O; βAla = NCCC(=O)O

Experiments:
Type in all cases: cell-based
GLP-1 receptor [1] = target: T1, GLP-1 receptor (Homo sapiens, UniProt P43220); assay: HitHunter cAMP assay, GLP-1 receptor; settings: for EC50: CHO cells stably expressing human GLP-1 receptor, cAMP accumulation, 30 min, read-out: EC50 GLP-1R; for Emax: CHO cells, cAMP, normalized to maximum signal from GLP-1 (high) and DMSO (low), read-out: Emax GLP-1R
GIP receptor [2] = target: T2, GIP receptor (Homo sapiens, UniProt P48546); assay: PathHunter β-arrestin assay, GIP receptor; parameters: host or cells: PathHunter CHO-K1 GIPR β-Arrestin Cell Line; settings: β-arrestin-2 recruitment, PathHunter CHO-K1 GIPR β-Arrestin Cell Line, 90 min at 37° C.; normalized to GIP; read-out: GIPR β Arrestin EC50
T2 sequence (P48546 22-466): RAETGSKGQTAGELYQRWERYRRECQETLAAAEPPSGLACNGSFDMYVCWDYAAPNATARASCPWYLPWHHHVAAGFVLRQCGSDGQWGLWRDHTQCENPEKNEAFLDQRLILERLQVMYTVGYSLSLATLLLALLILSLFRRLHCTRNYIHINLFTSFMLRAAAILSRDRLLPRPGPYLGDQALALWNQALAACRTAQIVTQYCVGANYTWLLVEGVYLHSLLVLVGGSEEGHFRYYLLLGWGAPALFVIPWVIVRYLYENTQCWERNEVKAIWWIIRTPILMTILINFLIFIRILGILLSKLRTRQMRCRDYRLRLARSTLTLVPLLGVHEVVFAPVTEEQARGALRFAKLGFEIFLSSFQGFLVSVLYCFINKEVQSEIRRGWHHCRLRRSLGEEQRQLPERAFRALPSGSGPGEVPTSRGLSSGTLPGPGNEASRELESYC

GLP-1 receptor [3] = target: T1, GLP-1 receptor; assay: PathHunter β-arrestin assay, GLP-1 receptor; parameters: host or cells: PathHunter CHO-K1 GLP1R β-Arrestin Cell Line; settings: β-arrestin-2 recruitment, PathHunter CHO-K1 GLP1R β-Arrestin Cell Line, 90 min at 37° C.; normalized to GLP-1; read-out: GLP-1R β Arrestin EC50
GIP receptor [4] = target: T2, GIP receptor; assay: HitHunter cAMP assay, GIP receptor; settings: for EC50: CHO cells stably expressing GIP receptor, cAMP accumulation, 30 min, read-out: EC50 GIP-1R; for Emax: CHO cells, cAMP, normalized to maximum signal from GIP (high) and DMSO (low), read-out: Emax GIP-1R

T1 sequence (P43220 24-463): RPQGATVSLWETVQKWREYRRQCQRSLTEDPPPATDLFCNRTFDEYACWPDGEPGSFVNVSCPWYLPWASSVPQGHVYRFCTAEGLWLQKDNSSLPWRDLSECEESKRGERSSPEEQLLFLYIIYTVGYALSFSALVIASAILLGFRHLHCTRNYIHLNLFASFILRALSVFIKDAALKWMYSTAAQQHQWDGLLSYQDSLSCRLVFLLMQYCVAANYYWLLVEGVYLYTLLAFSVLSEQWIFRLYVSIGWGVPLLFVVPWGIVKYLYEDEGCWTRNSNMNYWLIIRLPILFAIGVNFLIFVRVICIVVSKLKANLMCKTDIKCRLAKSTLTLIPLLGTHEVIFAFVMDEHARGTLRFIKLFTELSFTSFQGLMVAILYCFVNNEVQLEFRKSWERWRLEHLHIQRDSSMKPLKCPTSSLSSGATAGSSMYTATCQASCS

Row | Compound | EC50 (GLP-1 receptor [1]) | Emax (GLP-1 receptor [1]) | EC50 (GIP receptor [2]) | EC50 (GLP-1 receptor [3]) | EC50 (GIP receptor [4]) | Emax (GIP receptor [4])
1 | CC[C@H](C)[C@H](NC(=O)[C@H](CC(C)C)NC(=O)[C@H](Cc1c[nH]c2ccccc12)NC(=O)[C@H](CCC(N)=O)NC(=O)[C@@H](NC(=O)[C@H](Cc1ccccc1)NC(=O)[C@H](C)NC(=O)[C@H](CCCCNC(=O)COCCOCCNC(=O)COCCOCCNC(=O)CC[C@H](NC(=O)CCCCCCCCCCCCCCCCCCC(=O)O)C(=O)O)NC(=O)[C@H](CCC(N)=O)NC(=O)[C@H](C)NC(=O)[C@@H](NC(=O)[C@H](CCCCN)NC(=O)[C@H](CC(=O)O)NC(=O)[C@H](CC(C)C)NC(=O)C(C)(C)NC(=O)[C@@H](NC(=O)[C@H](CO)NC(=O)[C@H](Cc1ccc(O)cc1)NC(=O)[C@H](CC(=O)O)NC(=O)[C@H](CO)NC(=O)[C@@H](NC(=O)[C@H](Cc1ccccc1)NC(=O)[C@@H](NC(=O)CNC(=O)[C@H](CCC(=O)O)NC(=O)C1CN(C(=O)C(C)(C)c2cc(F)cc(C#N)c2)C1)[C@@H](C)O)[C@@H](C)O)[C@@H](C)CC)[C@@H](C)CC)C(C)C)C(=O)N[C@@H](C)C(=O)NCC(=O)NCC(=O)N1CCC[C@H]1C(=O)N[C@@H](CO)C(=O)N[C@@H](CO)C(=O)NCC(=O)N[C@@H](C)C(=O)N1CCC[C@H]1C(=O)N1CCC[C@H]1C(=O)N1CCC[C@H]1C(=O)N[C@@H](CO)C(N)=O [Compound 213] ({Isobutyryl(2-(3-CN-5-F-Ph))}-[Azetidine3carboxylic]EGTFTSDYSI[Aib]LDKIAQK([AEEA-AEEA-γGlu-C20 diacid])AFVQWLIAGGPSSGAPPPS-NH2) | 100 to 1000 nM | 78% | > 1000 nM | > 1000 nM | 100 to 1000 nM | 92%
2 | CC[C@H](C)[C@H](NC(=O)[C@H](CC(C)C)NC(=O)[C@H](Cc1c[nH]c2ccccc12)NC(=O)[C@H](CCC(N)=O)NC(=O)[C@@H](NC(=O)[C@H](Cc1ccccc1)NC(=O)[C@H](C)NC(=O)[C@H](CCCCNC(=O)COCCOCCNC(=O)COCCOCCNC(=O)CC[C@H](NC(=O)CCCCCCCCCCCCCCCCCCC(=O)O)C(=O)O)NC(=O)[C@H](CCC(N)=O)NC(=O)[C@H](C)NC(=O)[C@@H](NC(=O)[C@H](CCCCN)NC(=O)[C@H](CC(=O)O)NC(=O)[C@H](CC(C)C)NC(=O)C(C)(C)NC(=O)[C@@H](NC(=O)[C@H](CO)NC(=O)[C@H](Cc1ccc(O)cc1)NC(=O)[C@H](CC(=O)O)NC(=O)[C@H](CO)NC(=O)[C@@H](NC(=O)[C@H](Cc1ccccc1)NC(=O)[C@@H](NC(=O)CNC(=O)[C@H](CCC(=O)O)NC(=O)CCNC(=O)C1(c2cccc(F)c2)CCCC1)[C@@H](C)O)[C@@H](C)O)[C@@H](C)CC)[C@@H](C)CC)C(C)C)C(=O)N[C@@H](C)C(=O)NCC(=O)NCC(=O)N1CCC[C@H]1C(=O)N[C@@H](CO)C(=O)N[C@@H](CO)C(=O)NCC(=O)N[C@@H](C)C(=O)N1CCC[C@H]1C(=O)N1CCC[C@H]1C(=O)N1CCC[C@H]1C(=O)N[C@@H](CO)C(N)=O [Compound 214] ({X18-βAla}-EGTFTSDYSI[Aib]LDKIAQK([AEEA-AEEA-γGlu-C20 diacid])AFVQWLIAGGPSSGAPPPS-NH2) | 0.1 to 1 nM | 97% | > 1000 nM | > 1000 nM | 0.1 to 1 nM | 101%
3 | CC[C@H](C)[C@H](NC(=O)[C@H](CC(C)C)NC(=O)[C@H](Cc1c[nH]c2ccccc12)NC(=O)[C@H](CCC(N)=O)NC(=O)[C@@H](NC(=O)[C@H](Cc1ccccc1)NC(=O)[C@H](C)NC(=O)[C@H](CCCCNC(=O)COCCOCCNC(=O)COCCOCCNC(=O)CC[C@H](NC(=O)CCCCCCCCCCCCCCCCCCC(=O)O)C(=O)O)NC(=O)[C@H](CCC(N)=O)NC(=O)[C@H](C)NC(=O)[C@@H](NC(=O)[C@H](CCCCN)NC(=O)[C@H](CC(=O)O)NC(=O)[C@H](CC(C)C)NC(=O)C(C)(C)NC(=O)[C@@H](NC(=O)[C@H](CO)NC(=O)[C@H](Cc1ccc(O)cc1)NC(=O)[C@H](CC(=O)O)NC(=O)[C@H](CO)NC(=O)[C@@H](NC(=O)[C@H](Cc1ccccc1)NC(=O)[C@@H](NC(=O)CNC(=O)[C@H](CCC(=O)O)NC(=O)CCNC(=O)C(C)(C)c1ccc(F)c(F)c1)[C@@H](C)O)[C@@H](C)O)[C@@H](C)CC)[C@@H](C)CC)C(C)C)C(=O)N[C@@H](C)C(=O)NCC(=O)NCC(=O)N1CCC[C@H]1C(=O)N[C@@H](CO)C(=O)N[C@@H](CO)C(=O)NCC(=O)N[C@@H](C)C(=O)N1CCC[C@H]1C(=O)N1CCC[C@H]1C(=O)N1CCC[C@H]1C(=O)N[C@@H](CO)C(N)=O [Compound 215] ({X17-βAla}-EGTFTSDYSI[Aib]LDKIAQK([AEEA-AEEA-γGlu-C20 diacid])AFVQWLIAGGPSSGAPPPS-NH2) | 0.1 to 1 nM | 98% | < 1000 nM | > 1000 nM | 0.1 to 1 nM | 99%
4 | CC[C@H](C)[C@H](NC(=O)[C@H](CC(C)C)NC(=O)[C@H](Cc1c[nH]c2ccccc12)NC(=O)[C@H](CCC(N)=O)NC(=O)[C@@H](NC(=O)[C@H](Cc1ccccc1)NC(=O)[C@H](C)NC(=O)[C@H](CCCCNC(=O)COCCOCCNC(=O)COCCOCCNC(=O)CC[C@H](NC(=O)CCCCCCCCCCCCCCCCCCC(=O)O)C(=O)O)NC(=O)[C@H](CCC(N)=O)NC(=O)[C@H](C)NC(=O)[C@@H](NC(=O)[C@H](CCCCN)NC(=O)[C@H](CC(=O)O)NC(=O)[C@H](CC(C)C)NC(=O)C(C)(C)NC(=O)[C@@H](NC(=O)[C@H](CO)NC(=O)[C@H](Cc1ccc(O)cc1)NC(=O)[C@H](CC(=O)O)NC(=O)[C@H](CO)NC(=O)[C@@H](NC(=O)[C@H](Cc1ccccc1)NC(=O)[C@@H](NC(=O)CNC(=O)[C@H](CCC(=O)O)NC(=O)CCNC(=O)C(C)c1cc(F)cc(F)c1)[C@@H](C)O)[C@@H](C)O)[C@@H](C)CC)[C@@H](C)CC)C(C)C)C(=O)N[C@@H](C)C(=O)NCC(=O)NCC(=O)N1CCC[C@H]1C(=O)N[C@@H](CO)C(=O)N[C@@H](CO)C(=O)NCC(=O)N[C@@H](C)C(=O)N1CCC[C@H]1C(=O)N1CCC[C@H]1C(=O)N1CCC[C@H]1C(=O)N[C@@H](CO)C(N)=O (stereo partly drawn) [Compound 216] ({X77-βAla}-EGTFTSDYSI[Aib]LDKIAQK([AEEA-AEEA-γGlu-C20 diacid])AFVQWLIAGGPSSGAPPPS-NH2) | 0.1 to 1 nM | 102% | > 1000 nM | > 1000 nM | 10 to 100 nM | 93%
5 | CC[C@H](C)[C@H](NC(=O)[C@H](CC(C)C)NC(=O)[C@H](Cc1c[nH]c2ccccc12)NC(=O)[C@H](CCC(N)=O)NC(=O)[C@@H](NC(=O)[C@H](Cc1ccccc1)NC(=O)[C@H](C)NC(=O)[C@H](CCCCNC(=O)COCCOCCNC(=O)COCCOCCNC(=O)CC[C@H](NC(=O)CCCCCCCCCCCCCCCCCCC(=O)O)C(=O)O)NC(=O)[C@H](CCC(N)=O)NC(=O)[C@H](C)NC(=O)[C@@H](NC(=O)[C@H](CCCCN)NC(=O)[C@H](CC(=O)O)NC(=O)[C@H](CC(C)C)NC(=O)C(C)(C)NC(=O)[C@@H](NC(=O)[C@H](CO)NC(=O)[C@H](Cc1ccc(O)cc1)NC(=O)[C@H](CC(=O)O)NC(=O)[C@H](CO)NC(=O)[C@@H](NC(=O)[C@H](Cc1ccccc1)NC(=O)[C@@H](NC(=O)CNC(=O)[C@H](CCC(=O)O)NC(=O)CCNC(=O)C1(c2ccc(Cl)cc2)CCCC1)[C@@H](C)O)[C@@H](C)O)[C@@H](C)CC)[C@@H](C)CC)C(C)C)C(=O)N[C@@H](C)C(=O)NCC(=O)NCC(=O)N1CCC[C@H]1C(=O)N[C@@H](CO)C(=O)N[C@@H](CO)C(=O)NCC(=O)N[C@@H](C)C(=O)N1CCC[C@H]1C(=O)N1CCC[C@H]1C(=O)N1CCC[C@H]1C(=O)N[C@@H](CO)C(N)=O [Compound 217] ({cPentCO(1-(4-ClPh))-βAla}-EGTFTSDYSI[Aib]LDKIAQK([AEEA-AEEA-γGlu-C20 diacid])AFVQWLIAGGPSSGAPPPS-NH2) | 0.1 to 1 nM | 101% | > 1000 nM | > 1000 nM | 0.1 to 1 nM | 108%
